Assay [1] deals with DR1. Nature of the assay: DR1. The text has this: (§1) Table printed on a drawing sheet, Figure 3
(§2) The patent's description of the figure: FIG. 3 illustrates the binding activity, with respect to the HLA II molecules that are predominant in the Caucasian population, of a second series of peptides of the C and NS3 proteins, derived from the first series. The values correspond to the IC50 values, expressed in nM.
(§3) First copying reader's note: The sheet prints no unit; blank spacer lines between peptide groups are left out, and the Nb head is printed slightly left of its column.; the cell N1056-1070 / DR15 is printed empty.; the cell N1056-1070 / DR15 is printed empty.
Where the first naming reader finds the target: head: DR1

The test system of assay [2] is DR4. Description: DR4.
Source text: as §1, §2, §3
Where the first naming reader finds the target: head: DR4

Assay [3] deals with DR7. Description: DR7.
Source text: as §1, §2, §3
Where the first naming reader finds the target: head: DR7

Assay [4] relates to DRB5. Nature of the assay: DRB5.
Source text: as §1, §2, §3
Where the first naming reader finds the target: head: DRB5

In assay [5] the test system is DP401. Description: DP401.
Source text: as §1, §2, §3
Where the first naming reader finds the target: head: DP401

For assay [6], the system named is DR11. Nature of the assay: DR11.
Source text: as §1, §2, §3
(§4) Where the first naming reader finds the target: head: DR11

In assay [7] the test system is DR15. Nature of the assay: DR15.
Source text: as §1, §2, §3
Where the first naming reader finds the target: head: DR15

A further assay concerns the target T1, HLA-DR1 (DRB1*0101) (Homo sapiens, UniProt P01903+P01911, A100R/D57E/F55L/F60I/F76Y/I96L/L162R/M171V/P40L/Q125E/R42F/V115G/Y59C).
T1 construct: endogenous in cells; host or cells: homozygous EBV-transformed human B lymphocyte lines; immunopurified with antibody L243
Description: biochemical. The conditions noted are these: for IC50: DRB1*0101. In kind it is binding.

In assay [8] the test system is splenocytes from mice transgenic for the human HLA-DR1 molecules. Description: Proliferation assay with splenocytes of immunized HLA-DR1 transgenic mice. Conditions: 25 μg of single peptide in montanide, subcutaneous, two injections; restimulation 5 μg/ml; FIG. 4A. It counts as in vivo. As to the method: The ability of the peptides having good affinity for the HLA II molecules, as defined above, to induce an immune response was evaluated by means of an in vitro proliferation assay in mice transgenic for HLA-DR1 molecules (Wilkinson et al., Infect. Immunity, 1999, 67, 1501-; Rosloniec et al., J. Exp. Med., 1997, 185, 1113-), pre-immunized with these peptides.
15 days later, a second injection was given under the same conditions. Ten days after the second injection, the animals were sacrificed and their spleen was removed. The splenocytes were cultured in HL-1 medium (Biowhittaker) supplemented with 1% of mouse serum, in the presence of 5 μg/ml of each of the peptides used for the injection, or in the absence of peptide. After 4 days of culture, 1 μCi of tritiated thymidine (Amersham, Life Technologies) was added for 16 h. The tritiated thymidine incorporation was then measured using a beta-counter (Microbeta 1450, Perkin Elmer). The results are expressed as a proliferation index (number of CPM in the presence of peptide/number of CPM in the absence of peptide).

The next assay relates to DR3. Description: DR3. An excerpt: (§5) Table printed on a drawing sheet, Figure 2
Where the first naming reader finds the target: head: DR3

The test system of assay [9] is DR4. Nature of the assay: DR4. This is another data set of the same source.
In assay [10] the test system is DR7. Description: DR7. The source holds these as a separate data set.
In a further assay the test system is DR13. Nature of the assay: DR13.
Source text: as §5
Where the first naming reader finds the target: head: DR13

In assay [11] the test system is DR15. Nature of the assay: DR15. The source holds these as a separate data set.
The test system of the next assay is DRB3. Description: DRB3.
For the next assay, the system named is DRB4. Nature of the assay: DRB4.
Source text: as §5
Where the first naming reader finds the target: head: DRB4

The subject of assay [12] is DRB5. Nature of the assay: DRB5. The source holds these as a separate data set.
Assay [13] relates to DR11. Nature of the assay: DR11.
Source text: as §5, §4
The source holds these as a separate data set.

The target in the next assay is T2, HLA-DR4 (DRB1*0401) (Homo sapiens, UniProt P01903+P01911, A100K/A169T/F76Y/I96L/K127E/L162R/M171V/N62H/P40V/Q125Y/R42H/S133A/S149N/S66Y/V115G/V209L/W38E).
T2 construct: endogenous in cells; host or cells: homozygous EBV-transformed human B lymphocyte lines; immunopurified with antibody L243
Description: biochemical. The conditions noted are these: read-out: binds with good affinity to DR4. In kind it is binding.

Another assay addresses HLA-DR7 (DRB1*0701) (Homo sapiens, UniProt P01903+P01911, A100R/A102G/A103Q/D57E/D86V/E43K/F76Y/K127E/L162R/M171V/P40G/Q125H/Q99D/R33Q/R42Y/R54Q/S133A/S66F/T210M/V115G/Y107V/Y59L/Y89S). Nature of the assay: biochemical. The conditions noted are these: read-out: binds with good affinity to DR7. It counts as binding.
For the next assay, the target named is HLA-DR11 (DRB1*1101) (Homo sapiens, UniProt P01903+P01911, A100R/A169T/A87E/I96F/K41T/L162R/M171V/P40S/Q125H/Q178H/Q39Y/Q99D/R42S/S66Y/T262R/V115G/W38E). Nature of the assay: biochemical. In kind it is binding. Conditions: read-out: binds with good affinity to DR11.
Sequence of HLA-DR11 (DRB1*1101) (P01903 26-254 limits assumed, other chains not shown): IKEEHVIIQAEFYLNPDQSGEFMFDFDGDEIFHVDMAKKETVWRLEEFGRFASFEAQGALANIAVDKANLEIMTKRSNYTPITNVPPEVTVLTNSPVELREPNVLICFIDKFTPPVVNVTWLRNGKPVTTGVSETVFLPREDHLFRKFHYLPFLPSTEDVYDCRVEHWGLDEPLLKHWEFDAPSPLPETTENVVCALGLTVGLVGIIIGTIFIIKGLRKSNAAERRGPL
In the next assay the target is T3, HLA-DR15 (DRB1*1501) (Homo sapiens, UniProt P01903+P01911).
T3 construct: endogenous in cells; host or cells: homozygous EBV-transformed human B lymphocyte lines; immunopurified with antibody L243
Nature of the assay: biochemical. It counts as binding. Conditions: DRB1*1501; read-out: binds with good affinity to DR15.

The target in the next assay is T4, HLA-DRB3 (DRB3*0101) (Homo sapiens, UniProt P01903+P79483).
T4 construct: endogenous in cells; host or cells: homozygous EBV-transformed human B lymphocyte lines; immunopurified with antibody L243
Description: HLA II/peptide binding assay, HLA-DRB3. The conditions noted are these: read-out: binds with good affinity to DRB3.

For the next assay, the target named is HLA-DP401 (DPB1*0401) (Homo sapiens, UniProt P04440+P20036). Nature of the assay: biochemical. In kind it is binding. Conditions: DP*0401; read-out: binds with good affinity to DP401.
The subject of assay [14] is DR1. Nature of the assay: DR1. This is another data set of the same source.
For assay [15], the system named is DP401. Description: DP401. This is another data set of the same source.
In the next assay the test system is DP402. Description: DP402.

Like-named read-outs stand apart in the source and are kept apart here. Residues, ends and D or L forms follow the SMILES beside them.

Take GAPLGGAARALAHG [C 141-155]: the IC50 in the assay with DR1 [1] is 3.5 µM; in the assay on DR4 [2], 80 µM; with DR7 [3], 11.8 µM; in the assay with DRB5 [4], 8.33 µM; in the assay on DP401 [5], 9.49 µM; in the assay with DR11 [6], 0.49 µM. In addition, the IC50 with DR15 [7] was found to be 50 µM.
As for `CC(C)C[C@H](NC(=O)[C@H](C)NC(=O)[C@H](CCCNC(=N)N)NC(=O)[C@H](C)N)C(=O)N[C@@H](C)C(=O)N[C@@H](Cc1c[nH]cn1)C(=O)NCC(=O)N[C@H](C(=O)N[C@@H](CCCNC(=N)N)C(=O)N[C@H](C(=O)N[C@@H](CC(C)C)C(=O)N[C@@H](CCC(=O)O)C(=O)N[C@@H](CC(=O)O)C(=O)NCC(=O)N[C@H](C(=O)N[C@@H](CC(N)=O)C(=O)N[C@@H](Cc1ccc(O)cc1)C(=O)N[C@@H](C)C(=O)N[C@H](C(=O)NCC(=O)N[C@@H](CC(N)=O)C(=O)N[C@@H](CC(C)C)C(=O)N1CCC[C@H]1C(=O)NCC(=O)N[C@@H](C)C(=O)N[C@@H](CO)C(=O)O)[C@@H](C)O)C(C)C)C(C)C)C(C)C` [6C 148-173] (H-ARALAHGVRVLEDGVNYATGNLPGAS-OH; N-terminus and C-terminus assumed), the IC50 at HLA-DR1 (DRB1*0101) (competition with biotinylated tracer HA 306-318, read-out: IC50, binding to HLA-DR1) worked out at 10 µM; in the assay on DR3, 3.5 µM; in the assay on DR4 [9] it was 0.03 µM; with DR7 [10] it was 3.17 µM; in the assay with DR13, 9.5 µM; with DR15 [11], 6.67 µM. Further, the IC50 in the assay with DRB3 was determined as 4.83 µM; in the assay on DRB4 it was 27.5 µM; in the assay with DRB5 [12], 4.33 µM; with DR11 [13] it was 4.33 µM. On HLA-DR1 (DRB1*0101) (legend of FIG. 4), the “affinity for HLA-DR1 (in words)” value is listed as “low affinity”. In assay [8], the “immune response (splenocyte proliferation index)” value is “do not induce any effect”.
Consider `CC[C@H](C)[C@H](NC(=O)[C@H](CC(N)=O)NC(=O)[C@@H]1CCCN1C(=O)[C@@H](N)CC(=O)O)C(=O)N[C@@H](CCCNC(=N)N)C(=O)N[C@H](C(=O)NCC(=O)N[C@H](C(=O)N[C@@H](CCCNC(=N)N)C(=O)N[C@H](C(=O)N[C@H](C(=O)N[C@H](C(=O)N[C@H](C(=O)NCC(=O)N[C@@H](CO)C(=O)N1CCC[C@H]1C(=O)N[C@H](C(=O)N[C@H](C(=O)N[C@@H](Cc1ccc(O)cc1)C(=O)N[C@@H](CO)C(=O)N[C@H](C(=O)N[C@@H](Cc1ccc(O)cc1)C(=O)NCC(=O)N[C@@H](CCCCN)C(=O)N[C@@H](Cc1ccccc1)C(=O)N[C@@H](CC(C)C)C(=O)N[C@@H](C)C(=O)N[C@@H](CC(=O)O)C(=O)NCC(=O)NCC(=O)O)[C@@H](C)O)[C@@H](C)O)[C@@H](C)CC)[C@@H](C)O)[C@@H](C)O)[C@@H](C)O)[C@@H](C)O)C(C)C)[C@@H](C)O` [19N 1275-1304] (H-DPNIRTGVRTTTTGSPITYSTYGKFLADGG-OH; N-terminus and C-terminus assumed), for which the IC50 on HLA-DR1 (DRB1*0101) (read-out: binds with good affinity to DR1), on HLA-DR4 (DRB1*0401), at HLA-DR7 (DRB1*0701), at HLA-DR11 (DRB1*1101), at HLA-DR15 (DRB1*1501) and at HLA-DRB3 (DRB3*0101) was less than 1 µM each time. Also, the IC50 was less than 1 µM on HLA-DP401 (DPB1*0401); 0.15 µM with DR1 [14]; more than 100 µM in the assay on DR3; 0.5 µM with DR4 [9]; 0.113 µM in the assay on DR7 [10]; more than 100 µM with DR13. Besides, the IC50 was found to be 0.55 µM in the assay on DR15 [11]; 0.15 µM in the assay with DRB3; 3.5 µM in the assay with DRB4; 1.3 µM in the assay with DRB5 [12]; 0.548 µM in the assay with DP401 [15]; 1.82 µM in the assay on DP402.

These data come from patent US20060110401A1, “Mixture of peptides from c and ns3 proteins of the hepatitis c virus and applications thereof” (priority 2002, published 2006).
